# Measured values as given in ChEMBL document CHEMBL4393731, “Discovery of fused bicyclic derivatives of 1H-pyrrolo[1,2-c]imidazol-1-one as VDR signaling regulators” (Bioorg Med Chem, 2019).
# Active and inactive are the calls of the source. The rule behind the calls is not given here.
# Tested on: HeLa
# Experiment: Induction of autophagy in human HeLa cells transformed with VDR shRNA assessed as up regulation of LC3-1 expression at 10 uM measured after 4 hrs in presence of calcitriol by Western blot analysis
# Type: functional, cell-based
row,SMILES,Activity
1,COc1cc([C@H]2N(c3ccc([N+](=O)[O-])cc3)C(=O)[C@@H]3CCCN32)ccc1O,Active

# Biological target: T1, Vitamin D3 receptor (Homo sapiens) (UniProt P11473)
# T1 sequence (whole entry): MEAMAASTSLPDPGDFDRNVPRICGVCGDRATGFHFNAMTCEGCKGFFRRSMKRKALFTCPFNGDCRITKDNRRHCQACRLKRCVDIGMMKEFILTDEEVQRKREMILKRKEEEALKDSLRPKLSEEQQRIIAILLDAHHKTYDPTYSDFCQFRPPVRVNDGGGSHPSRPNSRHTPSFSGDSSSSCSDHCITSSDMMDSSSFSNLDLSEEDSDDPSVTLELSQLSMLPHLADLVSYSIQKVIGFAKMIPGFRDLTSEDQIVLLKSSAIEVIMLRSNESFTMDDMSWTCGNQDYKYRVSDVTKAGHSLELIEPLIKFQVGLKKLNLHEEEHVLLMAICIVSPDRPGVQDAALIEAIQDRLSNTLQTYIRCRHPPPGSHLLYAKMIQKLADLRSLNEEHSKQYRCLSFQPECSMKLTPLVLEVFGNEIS
# Experiment: Activation of VDR in human HeLa cells assessed as up regulation of phosphorylated p65 expression at 10 uM measured after 24 hrs in the presence of calcitriol by Western blot analysis
# Type: cell-based
row,Activity,SMILES
1,Active,COc1cc([C@H]2N(c3ccc([N+](=O)[O-])cc3)C(=O)[C@@H]3CCCN32)ccc1O

# Tested on: HeLa
# Experiment: Induction of autophagy in human HeLa cells transformed with VDR shRNA assessed as up regulation of LC3-2 expression at 10 uM measured after 4 hrs in presence of calcitriol by western blot analysis
# Type: functional, cell-based
row,SMILES,Activity
1,COc1cc([C@H]2N(c3ccc([N+](=O)[O-])cc3)C(=O)[C@@H]3CCCN32)ccc1O,Active

# Tested on: HeLa
# Experiment: Induction of autophagy in human HeLa cells transformed with VDR shRNA assessed as effect on p62 expression at 10 uM measured after 4 hrs in presence of calcitriol by Western blot analysis
# Type: functional, cell-based
row,SMILES,Activity
1,COc1cc([C@H]2N(c3ccc([N+](=O)[O-])cc3)C(=O)[C@@H]3CCCN32)ccc1O,inactive

# Tested on: HeLa
# Experiment: Up regulation of VDR expression in human HeLa cells at 10 uM measured after 4 hrs in presence of VDR shRNA by Western blot analysis
# Type: functional, cell-based
row,SMILES,Activity
1,COc1cc([C@H]2N(c3ccc([N+](=O)[O-])cc3)C(=O)[C@@H]3CCCN32)ccc1O,inactive

# Tested on: HeLa
# Experiment: Induction of autophagy in human HeLa cells assessed as calcitriol-induced up regulation of LC3-1 expression at 10 uM measured after 4 hrs by Western blot analysis
# Type: functional, cell-based
row,SMILES,Activity
1,COc1cc([C@H]2N(c3ccc([N+](=O)[O-])cc3)C(=O)[C@@H]3CCCN32)ccc1O,Active

# Biological target: T1, Vitamin D3 receptor (Homo sapiens)
# Experiment: Modulation of VDR in human HeLa cells assessed as down regulation of p65 expression at 10 uM measured after 24 hrs in the presence of calcitriol by Western blot analysis
# Type: cell-based
row,Activity,SMILES
1,Active,COc1cc([C@H]2N(c3ccc([N+](=O)[O-])cc3)C(=O)[C@@H]3CCCN32)ccc1O

# Biological target: T1, Vitamin D3 receptor (Homo sapiens)
# Experiment: Modulation of VDR (unknown origin) expressed in human HeLa cells assessed as increase in calcitriol-induced response measured after 24 hrs by luciferase reporter assay
# Type: cell-based
row,SMILES,Activity
1,O=C1[C@@H]2CCCN2[C@@H](c2ccc([N+](=O)[O-])cc2)N1c1ccc([N+](=O)[O-])cc1,Dose-dependent effect
2,O=C1[C@@H]2CCCN2[C@@H](c2ccc([C@H]3N(c4ccc([N+](=O)[O-])cc4)C(=O)[C@@H]4CCCN43)cc2)N1c1ccc([N+](=O)[O-])cc1,inactive
3,COc1cc([C@H]2N(c3ccc([N+](=O)[O-])cc3)C(=O)[C@@H]3CCCN32)ccc1O,Dose-dependent effect

# Continued, values first:
row,Activity,SMILES
1,inactive,O=C1[C@@H]2CCCN2[C@@H](c2ccc(C(F)(F)F)cc2)N1c1ccc([N+](=O)[O-])cc1
2,inactive,COc1ccc([C@H]2N(c3ccc([N+](=O)[O-])cc3)C(=O)[C@@H]3CCCN32)cc1

# Biological target: T1, Vitamin D3 receptor (Homo sapiens)
# Experiment: Activation of VDR (unknown origin) expressed in human HeLa cells measured after 24 hrs by luciferase reporter assay
# Type: cell-based
row,SMILES,Activity
1,O=C1[C@@H]2CCCN2[C@@H](c2ccc([N+](=O)[O-])cc2)N1c1ccc([N+](=O)[O-])cc1,inactive
2,O=C1[C@@H]2CCCN2[C@@H](c2ccc([C@H]3N(c4ccc([N+](=O)[O-])cc4)C(=O)[C@@H]4CCCN43)cc2)N1c1ccc([N+](=O)[O-])cc1,inactive
3,COc1cc([C@H]2N(c3ccc([N+](=O)[O-])cc3)C(=O)[C@@H]3CCCN32)ccc1O,inactive

# Second part, the compound after the results:
row,Activity,SMILES
1,inactive,O=C1[C@@H]2CCCN2[C@@H](c2ccc(C(F)(F)F)cc2)N1c1ccc([N+](=O)[O-])cc1
2,inactive,COc1ccc([C@H]2N(c3ccc([N+](=O)[O-])cc3)C(=O)[C@@H]3CCCN32)cc1

# Biological target: T1, Vitamin D3 receptor (Homo sapiens)
# Experiment: Modulation of VDR in human HeLa cells assessed as increase in calcitriol-induced upregulation of p62 expression at 10 uM measured after 4 hrs by Western blot analysis
# Type: cell-based
row,Activity,SMILES
1,Active,COc1cc([C@H]2N(c3ccc([N+](=O)[O-])cc3)C(=O)[C@@H]3CCCN32)ccc1O

# Tested on: HeLa
# Experiment: Induction of autophagy in human HeLa cells transformed with VDR shRNA assessed as effect on p62 expression at 10 uM measured after 4 hrs by Western blot analysis
# Type: functional, cell-based
row,SMILES,Activity
1,COc1cc([C@H]2N(c3ccc([N+](=O)[O-])cc3)C(=O)[C@@H]3CCCN32)ccc1O,inactive

# Biological target: T1, Vitamin D3 receptor (Homo sapiens)
# Experiment: Modulation of VDR in human HeLa cells assessed as increase in calcitriol-induced upregulation of LC3-2 expression at 10 uM measured after 4 hrs by Western blot analysis
# Type: cell-based
row,Activity,SMILES
1,Active,COc1cc([C@H]2N(c3ccc([N+](=O)[O-])cc3)C(=O)[C@@H]3CCCN32)ccc1O

# Tested on: HeLa
# Experiment: Cytotoxicity against human HeLa cells measured after 24 hrs by MTT assay
# Type: cell-based
row,SMILES,CC10 [µM]
1,O=C1[C@@H]2CCCN2[C@@H](c2ccc([N+](=O)[O-])cc2)N1c1ccc([N+](=O)[O-])cc1,> 10
2,O=C1[C@@H]2CCCN2[C@@H](c2ccc([C@H]3N(c4ccc([N+](=O)[O-])cc4)C(=O)[C@@H]4CCCN43)cc2)N1c1ccc([N+](=O)[O-])cc1,> 10
3,O=C1[C@@H]2CCCN2[C@@H](c2ccc(C(F)(F)F)cc2)N1c1ccc([N+](=O)[O-])cc1,> 10
4,COc1ccc([C@H]2N(c3ccc([N+](=O)[O-])cc3)C(=O)[C@@H]3CCCN32)cc1,> 10
5,COc1cc([C@H]2N(c3ccc([N+](=O)[O-])cc3)C(=O)[C@@H]3CCCN32)ccc1O,> 10

# Biological target: Genome polyprotein (dengue virus type 2) (UniProt P29990)
# Experiment: Inhibition of Dengue virus 2 NS2B-NS3 protease
row,SMILES,Inhibition (active/not active)
1,O=C1[C@@H]2CCCN2[C@@H](c2ccc([N+](=O)[O-])cc2)N1c1ccc([N+](=O)[O-])cc1,Active
2,O=C1[C@@H]2CCCN2[C@@H](c2ccc([C@H]3N(c4ccc([N+](=O)[O-])cc4)C(=O)[C@@H]4CCCN43)cc2)N1c1ccc([N+](=O)[O-])cc1,inactive
3,COc1cc([C@H]2N(c3ccc([N+](=O)[O-])cc3)C(=O)[C@@H]3CCCN32)ccc1O,inactive

# Next, values leading:
row,Inhibition (active/not active),SMILES
1,Active,O=C1[C@@H]2CCCN2[C@@H](c2ccc(C(F)(F)F)cc2)N1c1ccc([N+](=O)[O-])cc1
2,Active,COc1ccc([C@H]2N(c3ccc([N+](=O)[O-])cc3)C(=O)[C@@H]3CCCN32)cc1
